The nature of data set [1]: Square-wave and cyclic voltammetry on glassy carbon electrode. Type of data set: physicochemical. Conditions: SWV, 0.5 mol/L NaClO4, pH 9, vs Ag/AgCl. From the text: The electrochemical properties of 6-chloro-7-deazapurine and 6-chloropurine derivatives of ferrocene 11c, 13a and 15b on a glassy carbon electrode were studied using cyclic (CV) and square-wave voltammetry (SWV) in aqueous electrolyte solutions over a wide pH range. The pH was varied from 2 to 10 in order to determine the effect of pH on the voltammograms (net peak currents and potentials). […] The pH of the solution affects the voltammetric response of this compound, i.e., the oxidation of evaluated compounds 11c, 13a and 15b is strongly dependent on it.
The forward (if) and backward (ib) components of the net response (Δi = if − ib) are shown as well (inset in Figure 2). […] The peak P1 occurs in all supporting electrolytes (i.e., at 2 ≤ pH ≤ 10), while the peak P2 is only observed at pH ≥ 9 (see Figure 1). The potential of peak P1 is pH-independent. Comparing to the literature data, peak P1 can be ascribed to the following charge transfer reaction [Fe^II(C5H5)2] ⇌ [Fe^III(C5H5)2]^+ + e^− [44, 48].
All chemicals used in the experiments were of the best grade commercially available (Sigma-Aldrich) and were used without further purification. Stock standard solutions of compounds 11c, 13a, 15b (c = 2.0 × 10^−3 mol/L) and 6-chloropurine (c = 1.2 × 10^−2 mol/L) were prepared from dry pure substances in dimethyl sulfoxide (DMSO, p.a.), purchased from Kemika (Zagreb, Croatia). Stock standard solution of ethynyl ferrocene (c = 1.1 × 10^−2 mol/L) was prepared from dry pure substance in ethanol (Kemika). For the supporting electrolyte, analytical grade NaClO4 (Kemika) was used. Water was deionized by the Millipore Milli-Q system to the resistivity ≥ 18 MΩcm. Voltammetric measurements were carried out using the computer-controlled electrochemical system „PGSTAT 101“ (Eco-Chemie, Utrecht, The Netherlands), controlled by the electrochemical software “NOVA 1.5”. A three-electrode system (BioLogic, Claix, France) with glassy carbon electrode (GCE) of 3 mm in diameter as a working electrode, Ag/AgCl (3 mol/L NaCl) as a reference electrode and a platinum wire as a counter electrode were used. All potentials were expressed versus Ag/AgCl (3 mol/L NaCl) reference electrode. The supporting electrolyte (0.5 mol/L NaClO4), adjusted to the desired pH value, was placed in the electrochemical cell and the required aliquot of the standard analyte solution was added. The solution in the electrochemical cell was degassed with high purity nitrogen for 10 min before measurement, and the nitrogen blanket was maintained thereafter. Before each run, the glassy carbon working electrode was polished with diamond suspension in spray (grain size 6 µm) and rinsed with ethanol and deionized water. All experiments were performed at room temperature. The presented results are reported as the mean value of three independent measurements.

For data set [2], the system named is cervical carcinoma (HeLa). In words: In vitro antiproliferative activity, HeLa. Type of data set: cell-based, human. Conditions: HeLa cells. The method, then:
(§1) Antiproliferative activity of compounds 11a−11c, 12a−12c, 13a−13c, 14a−14c, 15a−15c, 16a, 23a−23c, 24a−24c, 25a−25c, 34a−34c and 35a−35c was evaluated in vitro on four human tumor cell lines (American Type Culture Collection, Manassas, VA, USA): metastatic colorectal adenocarcinoma (SW620), ductal pancreatic adenocarcinoma (CFPAC-1), hepatocellular carcinoma (HepG2) and cervical carcinoma (HeLa) as well as normal skin fibroblasts (HFF).

Data set [3] deals with normal skin fibroblasts (HFF). The experiment in a line: Cytotoxicity on non-tumor cells, HFF. Type of data set: cell-based, human. As for the experimental part:
as §1

Data set [4] relates to ductal pancreatic adenocarcinoma (CFPAC-1). The experiment in a line: In vitro antiproliferative activity, CFPAC-1. Conditions: CFPAC-1 cells. Type of data set: cell-based, human. The method, then: as §1
The test system of data set [5] is hepatocellular carcinoma (HepG2). The experiment in a line: In vitro antiproliferative activity, HepG2. Type of data set: cell-based, human. Conditions: HepG2 cells. As for the experimental part: as §1
For data set [6] the following is noted: pH 7.4.
Experimental: The distribution coefficient Chrom logD, a parameter used to assess the lipophilicity of compounds [36, 37], was determined for novel purine and purine isosteres with a ferrocene motif as shown in Table 1.
The distribution coefficient, Chrom logD, was determined from compounds’ gradient retention times by employing a high-performance liquid chromatography method with fast acetonitrile gradient. Compounds were prepared for analysis in final concentration of 1.25 mM by dilution of 10 mM stock solutions in DMSO with acetonitrile. Aqueous mobile phase was 50 mM ammonium acetate adjusted with ammonia solution to pH 7.4 and the organic mobile phase was acetonitrile. A reversed phase HPLC column Luna C18, 50 × 3 mm i.d., 5 µm particle size (Phenomenex, Torrance, CA, USA) was used for analysis. Sample injection volume was 2 µL and the flow rate was 1 mL min^−1. All compounds were analysed in duplicates. Fast-gradient elution was as follows: from 0 to 100% of acetonitrile (0−3 min), 100% of acetonitrile (3.0−3.5 min), from 100 to 0% of acetonitrile (3.5−3.7 min), and re-equilibration with 100% of aqueous mobile phase (3.7−5.0 min). All measurements were performed on an HPLC-DAD instrument Agilent 1100 Series (Agilent Technologies, Santa Clara, CA, USA) coupled with a mass spectrometer Micromass Quattro API (Waters, MA, USA). MassLynx software, version 4.1 (Waters, Manchester, UK) was used for data acquisition and processing. Before compound analysis, a calibration step was performed. A set of standard compounds with literature CHI values [36] were plotted against gradient retention times to obtain a calibration equation, which was used to determine CHI value from the compounds’ retention times.
Data set [7] concerns metastatic colorectal adenocarcinoma (SW620). The experiment in a line: In vitro antiproliferative activity, SW620. Type of data set: cell-based, human. The conditions noted are these: SW620 cells. As for the experimental part: as §1

In the case of `C#Cc1cc[cH-]c1.[Fe+2].c1cc[cH-]c1` [ethynyl ferrocene, reference compound], the “Oxidation peak P2 potential (triazole)” value in data set [1] was “No anodic peak P2 was detected”.
On the same count and under the same terms, the entry for `Clc1ncnc2nc[nH]c12` [6-chloropurine, reference compound] is “No anodic peak P2 was detected”.
One may read the IC50 as the point on the concentration scale where inhibition reaches its midpoint. A higher IC50 goes with lower potency. As to `CC([c-]1cccc1)n1cc(Cn2ccc3ccccc32)nn1.[Fe+2].c1cc[cH-]c1` (centres unmarked) [Compound 24b, 1-[1-(1-Ferrocenyl-1-methylmethyl-1,2,3-triazol-4-yl)methyl]-1H-indole], the IC50 in data set [2] is 89.6 ± 7.64 µM; in data set [3] it was above 100 µM; in data set [4] it was 87.6 ± 1.79 µM; in data set [5] it was above 100 µM; in data set [7] it was above 100 µM. Moreover, the “Chrom logD” value in data set [6] is recorded as above 6.57.
`[Fe+2].c1cc[cH-]c1.c1ccc2c(c1)ccn2Cc1cn(-[c-]2cccc2)nn1` [Compound 24c, 1-[1-(1-Ferrocenyl-1,2,3-triazol-4-yl)methyl]-1H-indole]: the IC50 in data set [2] was 88.1 ± 1.18 µM; in data set [3], above 100 µM; in data set [4], 84.5 ± 15.8 µM; in data set [5] it was 90.9 ± 11.5 µM; in data set [7], above 100 µM. In addition, in data set [6], the “Chrom logD” value was above 6.57.
As for `[Fe+2].c1cc[cH-]c1.c1ccc2c(c1)ncn2Cc1cn(C[c-]2cccc2)nn1` [Compound 23a, 1-[1-(1-Ferrocenylmethyl-1,2,3-triazol-4-yl)methyl]-1H-benzimidazole], the IC50 in data set [2] is above 100 µM; in data set [3] it was 23.8 ± 3.32 µM; in data set [4], 64.6 ± 12.2 µM; in data set [5], 59.9 ± 10.9 µM; in data set [7] it was 97 ± 13.6 µM. Also, the “Chrom logD” value in data set [6] is 4.56.
Take `[Fe+2].c1cc[cH-]c1.c1ccc2c(c1)ncn2Cc1cn(-[c-]2cccc2)nn1` [Compound 23c, 1-[1-(1-Ferrocenyl-1,2,3-triazol-4-yl)methyl]-1H-benzimidazole]: the IC50 in data set [2], in data set [3], in data set [4], in data set [5] and in data set [7] was above 100 µM throughout. The “Chrom logD” value in data set [6] worked out at 4.45.
`Ic1ccc2c(ccn2Cc2cn(-[c-]3cccc3)nn2)c1.[Fe+2].c1cc[cH-]c1` [Compound 25c, 5-Iodo-1-[1-(1-ferrocenyl-1,2,3-triazol-4-yl)methyl]-1H-indole]: the IC50 in data set [2] was 79.4 ± 1.82 µM; in data set [3], 4.75 ± 1.7 µM; in data set [4] it was above 100 µM; in data set [5], 71.8 ± 3.44 µM; in data set [7] it was above 100 µM. Also, the “Chrom logD” value in data set [6] is above 6.57.

(Values after article PMC7180452, “Purine and Purine Isostere Derivatives of Ferrocene: An Evaluation of ADME, Antitumor and Electrochemical Properties” (Molecules, 2020).)
